# Source: PubChem BioAssay (NCI)
#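 Test compounds were applied to cells in 96-well plates for 48 hours at 5 doses. Here, GI50 denotes the concentration required for 50% inhibition of growth. At the TGI there is no net growth.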
# Key:
# Experiment in all cases: NCI tumour cell line growth inhibition, 48 h
# [1] = tested on: 786-0 renal
# [2] = tested on: A498 renal
# [3] = tested on: A549 NSCLC
# [4] = tested on: ACHN renal
# [5] = tested on: BT-549 breast
# [6] = tested on: CAKI-1 renal
# [7] = tested on: CCRF-CEM leukemia
# [8] = tested on: COLO 205 colon
# [9] = tested on: DU-145 prostate
# [10] = tested on: EKVX NSCLC
# [11] = tested on: HCC-2998 colon
# [12] = tested on: HCT-116 colon
# [13] = tested on: HCT-15 colon
# [14] = tested on: HL-60(TB) leukemia
# [15] = tested on: HOP-62 NSCLC
# [16] = tested on: HOP-92 NSCLC
# [17] = tested on: HS 578T breast
# [18] = tested on: HT29 colon
# [19] = tested on: IGROV1 ovarian
# [20] = tested on: K-562 leukemia
# [21] = tested on: KM12 colon
# [22] = tested on: LOX IMVI melanoma
# [23] = tested on: M14 melanoma
# [24] = tested on: MALME-3M melanoma
# [25] = tested on: MCF7 breast
# [26] = tested on: MDA-MB-231 breast
# [27] = tested on: MDA-MB-435
# [28] = tested on: MOLT-4 leukemia
# [29] = tested on: NCI-H226 lung
# [30] = tested on: NCI-H23 lung
# [31] = tested on: NCI-H460 lung
# [32] = tested on: NCI-H522 lung
# [33] = tested on: NCI/ADR-RES ovarian
# [34] = tested on: OVCAR-3 ovarian
# [35] = tested on: OVCAR-4 ovarian
# [36] = tested on: OVCAR-5 ovarian
# [37] = tested on: OVCAR-8 ovarian
# [38] = tested on: PC-3 prostate
# [39] = tested on: RPMI-8226 leukemia
# [40] = tested on: RXF 393 renal
# [41] = tested on: SF-268 CNS
# [42] = tested on: SF-295 CNS
# [43] = tested on: SF-539 CNS
# [44] = tested on: SK-MEL-2 melanoma
# [45] = tested on: SK-MEL-28 melanoma
# [46] = tested on: SK-MEL-5 melanoma
# [47] = tested on: SK-OV-3 ovarian
# [48] = tested on: SN12C renal
# [49] = tested on: SNB-19 CNS
# [50] = tested on: SNB-75 CNS
# [51] = tested on: SR leukemia
# [52] = tested on: SW-620 colon
# [53] = tested on: T-47D breast
# [54] = tested on: TK-10 renal
# [55] = tested on: U251 CNS
# [56] = tested on: UACC-257 melanoma
# [57] = tested on: UACC-62 melanoma
# [58] = tested on: UO-31 renal
smiles,measurement,setting,value
CC(C)Oc1ccc(-c2nn([C@@H](C)c3oc4ccc(F)cc4c(=O)c3-c3cccc(F)c3)c3ncnc(N)c23)cc1F,GI50,[1],12.8 µM
same,TGI,[1],> 100 µM
same,GI50,[2],76.1 µM
same,TGI,[2],> 100 µM
same,GI50,[3],7.7 µM
same,TGI,[3],> 100 µM
same,GI50,[4],50.1 µM
same,TGI,[4],> 100 µM
same,GI50,[5],6.99 µM
same,TGI,[5],> 100 µM
same,GI50,[6],5.6 µM
same,TGI,[6],> 100 µM
same,GI50,[7],6.17 µM
same,TGI,[7],> 100 µM
same,GI50,[8],67.3 µM
same,TGI,[8],> 100 µM
same,GI50,[9],> 100 µM
same,TGI,[9],> 100 µM
same,GI50,[10],8.61 µM
same,TGI,[10],> 100 µM
same,GI50,[11],> 100 µM
same,TGI,[11],> 100 µM
same,GI50,[12],8.96 µM
same,TGI,[12],> 100 µM
same,GI50,[13],9.33 µM
same,TGI,[13],> 100 µM
same,GI50,[14],30.4 µM
same,TGI,[14],> 100 µM
same,GI50,[15],> 100 µM
same,TGI,[15],> 100 µM
same,GI50,[16],4.71 µM
same,TGI,[16],> 100 µM
same,GI50,[17],47.5 µM
same,TGI,[17],> 100 µM
same,GI50,[18],21.8 µM
same,TGI,[18],> 100 µM
same,GI50,[19],> 100 µM
same,TGI,[19],> 100 µM
same,GI50,[20],5.68 µM
same,TGI,[20],> 100 µM
same,GI50,[21],25.8 µM
same,TGI,[21],> 100 µM
same,GI50,[22],> 100 µM
same,TGI,[22],> 100 µM
same,GI50,[23],> 100 µM
same,TGI,[23],> 100 µM
same,GI50,[24],> 100 µM
same,TGI,[24],> 100 µM
same,GI50,[25],6.79 µM
same,TGI,[25],> 100 µM
same,GI50,[26],22.9 µM
same,TGI,[26],> 100 µM
same,GI50,[27],> 100 µM
same,TGI,[27],> 100 µM
same,GI50,[28],9.28 µM
same,TGI,[28],> 100 µM
same,GI50,[29],26.9 µM
same,TGI,[29],> 100 µM
same,GI50,[30],60.9 µM
same,TGI,[30],> 100 µM
same,GI50,[31],17.6 µM
same,TGI,[31],> 100 µM
same,GI50,[32],> 100 µM
same,TGI,[32],> 100 µM
same,GI50,[33],20.7 µM
same,TGI,[33],> 100 µM
same,GI50,[34],30.2 µM
same,TGI,[34],> 100 µM
same,GI50,[35],> 100 µM
same,TGI,[35],> 100 µM
same,GI50,[36],> 100 µM
same,TGI,[36],> 100 µM
same,GI50,[37],11.8 µM
same,TGI,[37],> 100 µM
same,GI50,[38],4.68 µM
same,TGI,[38],> 100 µM
same,GI50,[39],6.7 µM
same,TGI,[39],> 100 µM
same,GI50,[40],4.36 µM
same,TGI,[40],> 100 µM
same,GI50,[41],19.1 µM
same,TGI,[41],> 100 µM
same,GI50,[42],> 100 µM
same,TGI,[42],> 100 µM
same,GI50,[43],15.2 µM
same,TGI,[43],> 100 µM
same,GI50,[44],> 100 µM
same,TGI,[44],> 100 µM
same,GI50,[45],> 100 µM
same,TGI,[45],> 100 µM
same,GI50,[46],48.9 µM
same,TGI,[46],> 100 µM
same,GI50,[47],> 100 µM
same,TGI,[47],> 100 µM
same,GI50,[48],9.89 µM
same,TGI,[48],> 100 µM
same,GI50,[49],32.5 µM
same,TGI,[49],> 100 µM
same,GI50,[50],> 100 µM
same,TGI,[50],> 100 µM
same,GI50,[51],4.93 µM
same,TGI,[51],> 100 µM
same,GI50,[52],> 100 µM
same,TGI,[52],> 100 µM
same,GI50,[53],5.42 µM
same,TGI,[53],> 100 µM
same,GI50,[54],7.29 µM
same,TGI,[54],> 100 µM
same,GI50,[55],23.9 µM
same,TGI,[55],> 100 µM
same,GI50,[56],> 100 µM
same,TGI,[56],> 100 µM
same,GI50,[57],> 100 µM
same,TGI,[57],> 100 µM
same,GI50,[58],3.81 µM
same,TGI,[58],> 100 µM
